These results are taken from US10683311B2 (priority 2015, dated 2020).

One data set concerns Pyricularia oryzae. Kind of data set: microbe, parasite or virus in culture. The following applies: for Efficacy: inhibition of fungal growth, liquid culture. It is filed as cell-based.
Data set [1] in a line: log P by HPLC on reversed-phase column (C18), EEC Directive 79/831 Annex V.A8. The class given is physicochemical. The note with it: for chromatographic logP: reversed-phase HPLC column (C18). The protocol:
In table 1, the log P values were determined in accordance with EEC Directive 79/831 Annex V.A8 by HPLC (High Performance Liquid Chromatography) on a reversed-phase column (C18), using the methods described below:
Method A: temperature: 40° C.; mobile phases: 0.1% aqueous formic acid and acetonitrile; linear gradient from 10% acetonitrile to 95% acetonitrile;
Method B: temperature: 40° C.; mobile phases: 0.001 molar ammonium acetate solution in water and acetonitrile; linear gradient from 10% acetonitrile to 95% acetonitrile.
Calibration was carried out using unbranched alkan-2-ones (comprising 3 to 16 carbon atoms) with known log P values (determination of the log P values by the retention times using linear interpolation between two successive alkanones). lambda-max-values were determined using UV-spectra from 200 nm to 400 nm and the peak values of the chromatographic signals.

Where [2] appears, read: Method A: 40° C., 0.1% aqueous formic acid and acetonitrile.
Setting [3] is: Method B: 40° C., 0.001 molar ammonium acetate solution in water and acetonitrile.

With `C[Si](C)(C)c1cc(F)ccc1Oc1ccnc2c(Cl)cccc12` [CMP2, 8-chloro-4-[4-fluoro-2-(trimethylsilyl)phenoxy]quinoline, reference compound], the Efficacy in the data set with Pyricularia oryzae (1 ppm, 5 days incubation) came out at 0%; in the data set on Pyricularia oryzae (4 ppm, 5 days incubation), 46%; with Pyricularia oryzae (20 ppm, 5 days incubation), 93%. In addition, the “efficacy (inhibition of fungal growth)” value in the data set with Pyricularia oryzae (4 ppm of active ingredient, 5 days incubation) is recorded as “much lower efficacy”.

As to `C[Si](C)(C)c1ccccc1Oc1cnc2ccccc2c1` [I.001, 3-[2-(trimethylsilyl)phenoxy]quinoline], the inhibition (commonly the share of the control response that was lost under treatment) at 20 ppm with Pyricularia oryzae (Pyricularia oryzae, 120 h, read-out: efficacy (inhibition of fungal growth)) was in the range of 90 to 100%. Also, the chromatographic logP (usually a lipophilicity value derived from retention on a column) in data set [1] (setting [2]) was 5.17.

In the case of `C[Si](C)(C)c1c(F)cccc1C(O)c1cnc2ccccc2c1` (centres unmarked) [I.133], in data set [1] (setting [2]), the lipophilicity (logP) (as a rule, the decadic logarithm of the partition coefficient of the neutral form, usually between octanol and water) amounted to 4.16.

As to `Cc1nc2c(F)c(F)ccc2nc1Oc1ccccc1Br` [IIb.02], the logP in data set [1] (logP Method A) was 4.38.

In data set [1] (setting [2]), `C[Si](C)(c1ccccc1Oc1cnc2c(F)c(F)ccc2n1)C1CCCCC1` [I.080] returned a log partition coefficient (logP) of 6.94.

Compound `C[Si](C)(O)c1c(F)cccc1Oc1cnc2sccc2c1` [I.119] displayed a log partition coefficient (logP) in data set [1] (setting [2]) of 3.09.

In turn, `Cc1ccc([Si](C)(C)O)c(Oc2nc3ccc(F)c(F)c3nc2C)c1` [I.096] had a logP in data set [1] (setting [2]) of 3.76.

Compound `C[Si](C)(O)c1ccccc1Oc1cnc2nccn2c1` [I.125] gave a logP in data set [1] (setting [2]) of 2.10.

`Cc1nc2c(F)c(F)ccc2nc1Oc1ccc(Cl)cc1Br` [IIb.11] yielded a logP in data set [1] (logP Method A) of 5.16.

`C[Si](C)(C)c1ccccc1Oc1cnc2c(F)c(F)ccc2c1` [I.020] displayed a logP in data set [1] (setting [2]) of 5.39.

As for `Cc1nc2ccccc2cc1Cc1ccccc1[Si](C)(C)c1ccccc1` [I.140], the logP in data set [1] (setting [2]) is 2.88.

For `Cc1nc2ccccc2cc1Oc1cccc(OC(F)(F)F)c1[Si](C)(C)O` [I.050], the logP in data set [1] (setting [2]) came out at 3.35.

The compound `C[Si](C)(C)c1ccccc1Oc1cnc2ccnn2c1` [I.123] yielded a logP in data set [1] (setting [2]) of 4.11.

Compound `C[Si](C)(C)c1c(F)cccc1Nc1cc2ccccc2nc1C(F)F` [I.066] displayed a log partition coefficient (logP) in data set [1] (setting [2]) of 5.68.

As to `CC[Si](C)(C)c1c(C#N)cccc1Oc1cc2ccc(F)c(F)c2nc1C` [I.039], the log partition coefficient (logP) in data set [1] (setting [2]) is given as 5.22.

On to `C[Si](C)(O)c1c(F)cccc1Oc1cnc2ccccc2n1` [I.071], for which the lipophilicity (logP) in data set [1] (setting [2]) was 3.01.

`C[Si]1(c2ccccc2)c2c(F)cccc2Oc2c(Cl)nc3ccccc3c21` (centres unmarked) [6-chloro-11-fluoro-12-methyl-12-phenyl-12H-[1,4]benz-oxasilino[2,3-c]quinoline]: the log partition coefficient (logP) in data set [1] (setting [2]) is reported as 5.94.

With `Cc1nc2ccccc2cc1Oc1cccc(F)c1N` [IVa.02], the logP in data set [1] (logP Method A) is reported as 2.15.

For `Cc1nc2c(F)c(F)ccc2cc1Oc1cccc(Cl)c1[Si](C)(C)O` [I.034], in data set [1] (setting [2]), the logP was 3.83.

In data set [1] (setting [3]), `C[Si](C)(O)c1ccccc1Nc1cnc2ccccc2c1` [I.009] came in with a logP of 3.20.

`N#Cc1cc(Br)c(Oc2cnc3c(F)c(F)ccc3n2)cc1F` [IIb.19] gave a log partition coefficient (logP) in data set [1] (logP Method A) of 3.81.

For the compound `Cc1nc2c(F)c(F)ccc2nc1Oc1cccc(C#N)c1Br` [IIb.22], in data set [1] (logP Method A), the logP was found to be 3.83. The logP values of the last two compounds are within 0.2 log units of each other.

The compound `Nc1c(F)cccc1Oc1cnc2c(F)c(F)ccc2c1` [IVa.04] returned a logP in data set [1] (logP Method A) of 3.02.

`CC(C)[Si](C)(C)c1ccccc1Oc1cnc2ccccc2n1` [I.075] returned a logP in data set [1] (setting [2]) of 5.91.

`C[Si](C)(O)c1ccccc1Oc1cnc2c(F)c(F)ccc2c1` [I.023] showed a lipophilicity (logP) in data set [1] (setting [2]) of 3.27.

`Fc1cccc(Oc2cc3ccccc3nc2C(F)F)c1Br` [IIa.19, 3-(2-bromo-3-fluorophenoxy)-2-(difluoromethyl)quinoline] registered a chromatographic logP in data set [1] (setting [2]) of 3.99.

In turn, `O=[N+]([O-])c1c(F)cccc1Oc1cnc2ccccc2c1` [Va.05] showed a logP in data set [1] (logP Method A) of 3.13.

`COc1cccc(Oc2cc3ccc(F)c(F)c3nc2C)c1[Si](C)(C)O` [I.033] gave a logP in data set [1] (setting [2]) of 3.69.

The compound `Cc1ccc(Oc2nc3ccc(F)c(F)c3nc2C)c(Br)c1` [IIb.09] yielded a log partition coefficient (logP) in data set [1] (logP Method A) of 4.92.

With `C[Si](C)(C)c1c(F)cccc1Oc1cc2ccccc2nc1-c1ccsc1` [I.067], in data set [1] (setting [2]), the logP was 6.66.

In data set [1] (setting [2]), `CC(C)C[Si](C)(C)c1ccccc1Oc1cnc2ccccc2n1` [I.073] came in with a logP of 6.33.

In data set [1] (setting [2]), `Cc1nc2c(F)c(F)ccc2cc1Oc1cc(F)ccc1[Si](C)(C)O` [I.035] returned a logP of 3.55.

`C[Si](C)(c1ccccc1)c1ccccc1Cc1cnc2ccccc2c1` [I.013]: the logP in data set [1] (setting [2]) stood at 4.20.

In turn, `CC[Si](C)(C)c1c(F)cccc1Oc1cnc2ccccc2c1` [I.005] yielded a logP in data set [1] (setting [2]) of 5.47.

Compound `Ic1c(COC2CCCCO2)cccc1Oc1cnc2ccccc2c1` (centres unmarked) [II.05A] returned a chromatographic logP in data set [1] (logP Method B) of 4.56.

As for `O=[N+]([O-])c1c(F)cccc1Oc1cnc2c(F)c(F)ccc2c1` [Va.01], the logP in data set [1] (logP Method A) was found to be 3.35.

Regarding `Fc1cccc2cc(Oc3ccccc3Br)cnc12` [IIa.04, 3-(2-bromophenoxy)-8-fluoroquinoline], the chromatographic logP in data set [1] (setting [2]) turned out to be 3.61.

In the case of `C[Si](C)(C)c1c(F)cccc1Oc1cnc2c(F)c(F)ccc2c1` [I.021], in data set [1] (setting [2]), the log partition coefficient (logP) is listed as 5.32.

Compound `Cc1nc2ccccc2cc1Oc1cccc(F)c1[Si](C)(C)O` [I.049] showed a log partition coefficient (logP) in data set [1] (setting [2]) of 2.41.

With `Fc1ccc2nc(Oc3ccccc3Br)cnc2c1F` [IIb.01], the logP in data set [1] (logP Method A) is on record as 3.92.

Compound `Cc1nc2ccccc2nc1Oc1ccccc1[Si](C)(C)O` [I.112] displayed a log partition coefficient (logP) in data set [1] (setting [2]) of 3.01.

In data set [1] (setting [2]), `Cc1nc2ccccc2nc1Oc1cccc(F)c1[Si](C)(C)C` [I.111] registered a logP of 5.45.

In turn, `Cc1nc2c(F)c(F)ccc2nc1Oc1cc(C#N)ccc1Br` [IIb.20] yielded a log partition coefficient (logP) in data set [1] (logP Method A) of 4.03.

In the case of `C[Si](C)(C)c1c(F)cccc1Oc1cc2ccccc2nc1O` [I.059], the logP in data set [1] (setting [2]) is 3.85.

On to `C[Si](C)(C)c1c(F)cccc1C(=O)c1cnc2ccccc2c1` [I.017], for which, in data set [1] (setting [2]), the logP stood at 4.49.

Regarding `Fc1cccc(Nc2cc3ccccc3nc2C(F)F)c1Br` [IIa.22, N-(2-bromo-3-fluorophenyl)-2-(difluoromethyl)quinolin-3-amine], the chromatographic logP in data set [1] (setting [2]) stood at 4.34.

Turning to `CC(=O)COc1ccccc1[Si](C)(C)C` [XIV.01, 1-[2-(trimethylsilyl)phenoxy]acetone], the chromatographic logP in data set [1] (setting [2]) and in data set [1] (logP Method A) was 1.39 throughout.

Consider `C[Si](C)(C)c1c(F)cccc1Oc1cc2ccccc2nc1C1CC1` [I.061], for which, in data set [1] (setting [2]), the logP turned out to be 6.90.

In data set [1] (logP Method B), `CC[Si](C)(C)c1ccccc1O` [IXa.04] came in with a log partition coefficient (logP) of 3.90.

Take `O=Cc1cccc(Oc2cnc3c(F)c(F)ccc3n2)c1Br` [II.01B]: the chromatographic logP in data set [1] (logP Method A) was found to be 3.48.

Take `Fc1cccc(Oc2cnc3ccccc3n2)c1Br` [IIb.14]: in data set [1] (logP Method A), the log partition coefficient (logP) was 3.78.

`Cc1nc2c(F)c(F)ccc2nc1Oc1ccccc1[Si](C)(C)C` [I.086] yielded a log partition coefficient (logP) in data set [1] (setting [2]) of 5.46.

As for `Cc1nc2c(F)c(F)ccc2nc1Oc1cc(F)ccc1[Si](C)(C)O` [I.105], the lipophilicity (logP) in data set [1] (setting [2]) is recorded as 3.58.

Turning to `Cc1nc2ccccc2cc1Oc1ccc(Cl)cc1Br` [IIa.26, 3-(2-bromo-4-chlorophenoxy)-2-methylquinoline], the chromatographic logP in data set [1] (setting [2]) stood at 4.13.

In data set [1] (logP Method A), `Cc1nc2c(F)c(F)ccc2cc1Oc1cccc(F)c1[N+](=O)[O-]` [Va.02] had a logP of 3.64.

Turning to `Cc1nc2ccccc2cc1Oc1cccc(F)c1[N+](=O)[O-]` [Va.06], the log partition coefficient (logP) in data set [1] (logP Method A) is recorded as 3.15.

`CC[Si](C)(C)c1c(C#N)cccc1Oc1c(C)nc2c(F)c(F)ccc2c1[Si](C)(C)CC` [I.043]: the logP in data set [1] (setting [2]) was 7.36.

For `Cc1nc2c(F)c(F)ccc2cc1Oc1c(F)cccc1Br` [IIa.09, 3-(2-bromo-6-fluorophenoxy)-7,8-difluoro-2-methylquinoline], the chromatographic logP in data set [1] (setting [2]) was determined as 4.25.

In data set [1] (logP Method A), `O=S(=O)(c1cccc(F)c1)c1cnc2ccccc2c1` [VII.05A] displayed a chromatographic logP of 2.68.

Take `COc1cccc(Oc2nc3ccc(F)c(F)c3nc2C)c1[Si](C)(C)O` [I.094]: in data set [1] (setting [2]), the logP was 3.60.

`Cc1nc2c(F)c(F)ccc2nc1Oc1c(Cl)cccc1Br` [IIb.05] showed a logP in data set [1] (logP Method A) of 4.87.

`Nc1ccccc1Nc1cnc2ccccc2c1` [IVa.01] yielded a logP in data set [1] (logP Method A) of 1.28.

`Cc1nc2ccccc2cc1Oc1cccc(OC(F)(F)F)c1Br` [IIa.25]: the logP in data set [1] (setting [2]) was 4.30.

As for `N#Cc1ccc(F)c(Br)c1Oc1cnc2c(F)c(F)ccc2n1` [IIb.21], in data set [1] (logP Method A), the lipophilicity (logP) is 3.72.

Take `COc1cccc(Oc2cc3ccc(F)c(F)c3nc2C)c1[Si](C)(C)C` [I.038]: the lipophilicity (logP) in data set [1] (setting [2]) was found to be 5.85.

For `Cc1nc2ccccc2cc1Oc1ccc(-c2ccsc2)cc1[Si](C)(C)C` [I.138], the logP in data set [1] (setting [2]) was determined as 5.85.

Regarding `CC[Si](CC)(CC)c1ccccc1O` [IX.01A], in data set [1] (logP Method A), the chromatographic logP is 4.72.

With `Brc1c(COC2CCCCO2)cccc1Nc1cnc2ccccc2c1` (centres unmarked) [II.04A, N-{2-bromo-3-[(tetrahydro-2H-pyran-2-yloxy)methyl]phenyl}quinolin-3-amine], the chromatographic logP in data set [1] (setting [3]) and in data set [1] (logP Method B) was 4.13 throughout.

For `C[Si](C)(c1ccc(Cc2ccccc2)cc1)c1ccccc1Cc1cnc2ccccc2c1` [I.143], in data set [1] (setting [2]), the lipophilicity (logP) is reported as 5.78.

Compound `Cc1nc2ccccc2cc1Cc1ccccc1[Si](C)(C)C` [I.139] yielded a log partition coefficient (logP) in data set [1] (setting [2]) of 2.76.

In turn, `Cc1nc2c(F)c(F)ccc2nc1Oc1cccc(F)c1[Si](C)(C)O` [I.085] showed a logP in data set [1] (setting [2]) of 3.67.
